From patent US20250188078A1, “SMALL MOLECULE INHIBITORS OF THE CRL4 UBIQUITIN LIGASE” (Cornell University, priority 2022, published 2025) come the findings set out here.

The subject of assay [1] is CUL4A^high MDA-MB-468 breast cancer cells. Description: Cell killing in CUL4-high MDA-MB-468 cells (CellTiter Glo). The format is cell-based. Particulars: Homo sapiens, 192 h; MDA-MB-468 cells, 8 days treatment; read-out: EC50 CUL4-High Cells (cell killing). As for the experimental part: EC50 refers to concentration of compound that induces 50% killing of CUL4A^high MDA-MB-468 cells (see Table 1, column 6). CUL4A^high MDA-MB-468 breast cancer cells were seeded in 96 well plates. After 24 hours, cells were treated with DMSO or compounds. Change fresh medium and compounds. After 8 days treatment, cell viability was examined by using CellTiter Glo kit (Promega #7570) following the manufacturer's guidelines (https://www.promega.com/-/media/files/resources/protocols/technicalbulletins/0/celltiter-glo-luminescent-cell-viability-assay protocol.pdf?rev=0d95c232094b41daa06d0c110d1d916f&sc_lang=en, hereby incorporated by reference in its entirety for all purposes). EC50 concentration was calculated by Prism 8 XY analysis nonlinear regression (curve fit-Log(inhibitor) vs response). Lower EC50 indicates high cell killing potential in CUL4^high MDA-MB-468 cells.
CUL4A^high MDA-MB-468, CUL4^low (T47D), and MCF7 breast cancer cells were seeded in 96 well plates separately. Cells were treated with DMSO, or from 0 to 20 μM compound respectively. Replace with fresh medium and compounds every 48 hours. After 8 days treatment, cell viability was examined by CellTiter Glo kit (Promega #7570). First, transfer the appropriate volume (10 ml for Cat. #G7570) of CellTiter-Glo® Buffer into the amber bottle containing CellTiter-Glo® Substrate to reconstitute the lyophilized enzyme/substrate mixture. This forms the CellTiter-Glo® Reagent. Second, add CellTiter-Glo® Reagent in an equal volume (100 μl per well for 96-well plates) to all wells. Mix contents for 2 minutes on an orbital shaker to induce cell lysis. Incubate at room temperature for 15 minutes to stabilize luminescent signal. Then record luminescence. EC50 concentration was calculated by Prism 8 XY analysis nonlinear regression (curve fit-Log(inhibitor) vs response).

For assay [2], the target named is CUL4A-DDB1-BPB interaction (Homo sapiens (Human), UniProt Q16531). Description: AlphaLISA in vitro binding assay, CUL4A and DDB1-BPB binding. Particulars: inhibition of CUL4A and DDB1-BPB binding. The text has this:
AlphaLISA IC50 (see Table 1, column 4) means the half maximal inhibitory concentration of compound that inhibits CUL4A and DDB1-BPB binding. Our lab established and optimized 384 well-based AlphaLISA in vitro binding assay for testing small molecule inhibitory activity. Small molecule libraries were screened for compounds that disrupt CUL4A-DDB1-BPB interaction using AlphaScreen detection beads (PerkinElmer, #AL112C and #6765300) following the manufacturer's protocol (https://www.perkinelmer.com/PDFs/downloads/GDE-Alphatech.pdf, hereby incorporated by reference in its entirety for all purposes). The 384-well assay plates (Greiner Bio-one, #781075) were read in Synergy Neo2 Hybrid Multi-Mode Reader (BioTek). The IC50 was calculated by Prism 8 XY analysis nonlinear regression (curve fit-Log(inhibitor) vs response).

Assay [3] deals with UV-induced CUL4-dependent DDB2 degradation in MEF-F-DDB2 cells. Put plainly: Cell-based assay for inhibition of UV-induced CUL4-dependent DDB2 degradation. As to conditions: DDB2/α-tubulin by Western blot. Details: key: (+) means that the normalized DDB2/α-tubulin ratio is higher in the compound treated sample than DMSO treated sample; (−) means that no change happens between compound treated sample with control sample. The method, then: Cell-based assay for inhibition of UV-induced CUL4-dependent DDB2 degradation by small molecule CUL4 inhibitors (see Table 1, column 5). Briefly, MEF-F-DDB2 cells were seeded in 6-well plates. DMSO or indicated concentrations of compounds were added to MEF-F-DDB2 cells growing in serum-free medium. MEF-F-DDB2 cells were washed once with PBS and subsequently irradiated with a Philips TUV lamp (predominantly 254 nm) at a dose rate of 0.2 W/m^2. DMSO or compounds were added to MEF-F-DDB2 cells, and then cells were harvested. The cells were lysed, and equal amounts of proteins were resolved on SDS-PAGE gel and Flag-DDB2 levels were detected using anti-DDB2 (D4C4) rabbit antibody (Cell signaling, #5416S). α-tubulin (Proteintech, #66031-1-Ig) was used as an internal loading control. (+) means that the normalized DDB2/α-tubulin ratio is higher in the compound treated sample than DMSO treated sample. (−) means that no change happens between compound treated sample with control sample.

CUL4A-DDB1-BPB interaction, sequence (Q16531 403-706): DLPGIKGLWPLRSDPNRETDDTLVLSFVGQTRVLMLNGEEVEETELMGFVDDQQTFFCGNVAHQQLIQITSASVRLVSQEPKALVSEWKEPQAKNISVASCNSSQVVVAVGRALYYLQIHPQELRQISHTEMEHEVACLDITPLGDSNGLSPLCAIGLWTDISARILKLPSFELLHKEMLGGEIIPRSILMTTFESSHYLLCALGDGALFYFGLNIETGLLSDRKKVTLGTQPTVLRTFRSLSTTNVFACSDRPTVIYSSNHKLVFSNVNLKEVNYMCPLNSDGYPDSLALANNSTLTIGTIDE

On to `CN(c1ccc(-c2nc(C(=O)O)cc3c2[nH]c2cc(F)cc(F)c23)cc1)S(=O)(=O)c1ccccc1` [PA1-5, 5,7-difluoro-1-(4-(N-methylphenylsulfonamido)phenyl)-9H-pyrido[3,4-b]indole-3-carboxylic acid], for which the EC50 in assay [1] was 10.7 µM. Besides, the IC50 in assay [2] came out at 0.22 µM.

With `CN(c1ccc(-c2nc(C(=O)O)cc3c2[nH]c2cc(Cl)ccc23)cc1)S(=O)(=O)c1ccccc1` [PA1-6, 1-[4-[benzenesulfonyl(methyl)amino]phenyl]-7-chloro-9H-pyrido[3,4-b]indole-3-carboxylic acid], the EC50 in assay [1] is 7.89 µM. In addition, the half-maximal inhibitory concentration (IC50) in assay [2] was 1.13 µM.

For the molecule `O=C(O)c1cc2c([nH]c3cc(F)ccc32)c(-c2ccc(Oc3ccccc3)cc2)n1` [PA1-11A, 7-fluoro-1-(4-phenoxyphenyl)-9H-pyrido[3,4-b]indole-3-carboxylic acid], the EC50 in assay [1] stood at 15.7 µM. The “Degradation Inhibition (inhibition of UV-induced DDB2 degradation)” value (from here on “Degradation Inhibition”) in assay [3] is “−”.

Turning to `O=C(O)c1cc2c([nH]c3cc(F)ccc32)c(-c2ccc(OCCc3ccccc3)cc2)n1` [PA1-11B, 7-fluoro-1-(4-phenethoxyphenyl)-9H-pyrido[3,4-b]indole-3-carboxylic acid], the concentration for a half-maximal effect (EC50) in assay [1] turned out to be 15.2 µM. Moreover, in assay [3], the “Degradation Inhibition” value was “−”.

Consider `O=C(O)c1cc2c([nH]c3cc(F)ccc32)c(-c2ccc(OCc3ccoc3)cc2)n1` [PA1-11J, 7-fluoro-1-(4-(furan-3-ylmethoxy)phenyl)-9H-pyrido[3,4-b]indole-3-carboxylic acid], for which, in assay [3], the “Degradation Inhibition” value is “−”.

Consider `O=C(O)c1cc2c([nH]c3cc(F)ccc32)c(-c2ccc(OCc3ccncn3)cc2)n1` [PA1-11L, 7-fluoro-1-(4-(pyrimidin-4-ylmethoxy)phenyl)-9H-pyrido[3,4-b]indole-3-carboxylic acid], for which the “Degradation Inhibition” value in assay [3] is recorded as “−”.

Turning to `O=C(O)c1cc2c([nH]c3cc(F)ccc32)c(-c2ccc(OCn3cncn3)cc2)n1` [PA1-11M, 1-(4-((1H-1,2,4-triazol-1-yl)methoxy)phenyl)-7-fluoro-9H-pyrido[3,4-b]indole-3-carboxylic acid], the “Degradation Inhibition” value in assay [3] is “−”.

As to `Cc1cc(F)cc2[nH]c3c(-c4ccc(N(C)S(=O)(=O)c5ccccc5)cc4)nc(C(=O)O)cc3c12` [PA1-14, 7-fluoro-5-methyl-1-(4-(N-methylphenylsulfonamido)phenyl)-9H-pyrido[3,4-b]indole-3-carboxylic acid], in assay [1], the EC50 is 7.36 µM. The concentration for half-maximal inhibition (IC50) in assay [2] amounted to 0.139 µM.

As for `O=C(O)c1cc2c([nH]c3ccccc32)c(-c2cccc(Cl)c2)n1` [PA6], in assay [2], the IC50 stood at 3.97 ± 0.79 µM.

With `Cn1c2ccccc2c2cc(C(=O)O)nc(-c3ccc([N+](=O)[O-])cc3)c21` [PA14, 9-methyl-1-(4-nitrophenyl)pyrido[3,4-b]indole-3-carboxylic acid], in assay [2], the IC50 came to 32.2 ± 7.89 µM.

Take `O=C(O)c1cc2c([nH]c3ccccc32)c(-c2ccc(CO)cc2)n1` [PA21]: in assay [2], the IC50 turned out to be 3.4 ± 0.88 µM.

Turning to `O=C(O)c1cc2c([nH]c3ccccc32)c(-c2cccc(O)c2)n1` [PA22], the half-inhibitory concentration (IC50) in assay [2] amounted to 14.7 ± 3.25 µM.

Turning to `N#Cc1cccc(-c2nc(C(=O)O)cc3c2[nH]c2ccccc23)c1` [PA23], in assay [2], the IC50 turned out to be 2.38 ± 0.9 µM.

As for `COC(=O)c1cccc(-c2nc(C(=O)O)cc3c2[nH]c2ccccc23)c1` [PA24, 1-(3-methoxycarbonylphenyl)-9HPage pyrido[3,4-b]indole-3-carboxylic acid], the IC50 in assay [2] came out at 12 µM. Further, in assay [3], the “Degradation Inhibition” value is on record as “+”.

Consider `O=C(O)c1cc2c([nH]c3ccccc32)c(-c2cccnc2)n1` [PA25], for which, in assay [2], the IC50 stood at 2.52 ± 0.54 µM. Further, in assay [3], the “Degradation Inhibition” value was “+”.

With `CN1C=C(c2nc(C(=O)O)cc3c2[nH]c2ccccc23)C=NC1` [PA26], in assay [2], the IC50 was found to be 4.81 ± 0.96 µM.

For the molecule `O=C(O)c1cc2c([nH]c3ccccc32)c(-c2ncc[nH]2)n1` [PA27], the IC50 in assay [2] stood at 23.1 ± 4.02 µM.

Turning to `O=C(O)c1cc2c([nH]c3ccccc32)c(-c2ccc3[nH]ccc3c2)n1` [PA28, 1-(1H-indol-5-yl)-9H-pyrido[3,4-b]indole-3-carboxylic acid], the IC50 in assay [2] came to 34.8 ± 8.75 µM.

Consider `Cc1c(/C(=N\CC(=O)O)c2ccc3[nH]ncc3c2)[nH]c2ccccc12` [PA29], for which the IC50 in assay [2] amounted to 3.79 ± 1.02 µM.

Regarding `O=[N+]([O-])c1ccc(-c2nc(Br)cc3c2[nH]c2ccc(Br)cc23)cc1` [PA30, 3,6-dibromo-1-(4-nitrophenyl)-9H-pyrido[3,4-b]indole], the “AlphaLisa IC50” value in assay [2] is on record as “Neg”.

With `O=C(O)c1cc2c([nH]c3ccccc32)c(-c2ccc(F)c(F)c2)n1` [PA32], the IC50 in assay [2] came out at 3.54 ± 0.68 µM.

Take `O=C(O)c1cc2c([nH]c3ccccc32)c(-c2cccc([N+](=O)[O-])c2)n1` [PA36]: the IC50 in assay [2] was 7.1 ± 0.61 µM.

In the case of `CS(=O)(=O)Nc1cc2c([nH]c3ccccc32)c(-c2ccc([N+](=O)[O-])cc2)n1` [PA38, N-[1-(4-nitrophenyl)-9H-pyrido[3,4-b]indol-3-yl]methanesulfonamide], the “AlphaLisa IC50” value in assay [2] is reported as “Neg”.

`NS(=O)(=O)c1cc2c([nH]c3ccc(Cl)cc32)c(-c2ccc([N+](=O)[O-])cc2)n1` [PA41, 6-chloro-1-(4-nitrophenyl)-9H-pyrido[3,4-b]indole-3-sulfonamide]: the “AlphaLisa IC50” value in assay [2] was “Neg”.

Regarding `CCS(=O)(=O)c1ccc(-c2nc(C(=O)O)cc3c2[nH]c2ccccc23)cc1` [PA45, 1-(4-ethylsulfonylphenyl)-9Hpyrido[3,4-b]indole-3-carboxylic acid], the IC50 in assay [2] was determined as 0.94 ± 0.24 µM.

As for `NS(=O)(=O)c1ccc(-c2nc(C(=O)O)cc3c2[nH]c2ccccc23)cc1` [PA49, 1-(4-sulfamoylphenyl)-9H-pyrido[3,4-b]indole-3-carboxylic acid], the half-maximal inhibitory concentration (IC50) in assay [2] came out at 0.96 ± 0.096 µM.

As to `CN(C)S(=O)(=O)c1ccc(-c2nc(C(=O)O)cc3c2[nH]c2ccccc23)cc1` [PA50, 1-[4-(dimethylsulfamoyl)phenyl]-9H-pyrido[3,4-b]indole-3-carboxylic acid], the IC50 in assay [2] is 0.81 ± 0.21 µM.

Consider `O=C(O)c1cc2c([nH]c3ccccc32)c(-c2ccc(-c3ccc(F)cc3)cc2)n1` [PA58], for which the IC50 in assay [2] was 5.5 ± 1.89 µM.

Take `Cc1ccc(-c2ccc(-c3nc(C(=O)O)cc4c3[nH]c3ccccc34)cc2)cc1` [PA59]: the IC50 in assay [2] amounted to 25 ± 12.5 µM.

With `COc1ccc(-c2ccc(-c3nc(C(=O)O)cc4c3[nH]c3ccccc34)cc2)cc1` [PA60], in assay [2], the IC50 is 17.5 ± 6.39 µM. Besides, the “Degradation Inhibition” value in assay [3] is “−”.

Regarding `CS(=O)(=O)c1ccc(-c2ccc(-c3nc(C(=O)O)cc4c3[nH]c3ccccc34)cc2)cc1` [PA61], the IC50 in assay [2] was determined as 3.86 ± 0.59 µM.

In the case of `O=C(O)c1cc2c([nH]c3ccccc32)c(-c2ccc(C#Cc3ccccc3)cc2)n1` [PA62], in assay [2], the IC50 was found to be 36.5 ± 9.9 µM.

Take `COCCOCC#Cc1ccc(-c2nc(C(=O)O)cc3c2[nH]c2ccccc23)cc1` [PA63]: in assay [2], the IC50 was found to be 5.05 ± 0.2 µM.

With `CS(=O)(=O)c1ccc(-c2nc(C(=O)O)nc3c2[nH]c2ccccc23)cc1` [PA70, 4-(4-methylsulfonylphenyl)-5H-pyrimido[5,4-b]indole-2-carboxylic acid], the half-inhibitory concentration (IC50) in assay [2] came to 9.04 ± 0.89 µM.

Take `O=C(O)c1cc2c([nH]c3ccccc32)c(-c2ccc(NS(=O)(=O)c3ccccc3)cc2)n1` [PA77, 1-[4-(benzenesulfonamido)phenyl]-9H-pyrido[3,4-b]indole-3-carboxylic acid]: in assay [2], the IC50 amounted to 1.52 ± 0.19 µM.
